Results published in PubChem BioAssay (NCI).
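Tested at 5 concentrations; 48 h exposure; 96-well plates; endpoints linearly interpolated, else capped at highest concentration. GI50 is the concentration that inhibits growth by half. TGI: total growth inhibition.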

Experiments:
Experiment in all cases: DTP human tumour cell line panel, 48 h
OVCAR-5 ovarian = system: OVCAR-5 ovarian
RXF 393 renal = system: RXF 393 renal
U251 CNS = system: U251 CNS
SF-268 CNS = system: SF-268 CNS
SW-620 colon = system: SW-620 colon
SR leukemia = system: SR leukemia
NCI-H226 lung = system: NCI-H226 lung
NCI-H460 lung = system: NCI-H460 lung
NCI-H522 lung = system: NCI-H522 lung
A498 renal = system: A498 renal
A549 NSCLC = system: A549 NSCLC
ACHN renal = system: ACHN renal
HL-60(TB) leukemia = system: HL-60(TB) leukemia
NCI/ADR-RES ovarian = system: NCI/ADR-RES ovarian
MALME-3M melanoma = system: MALME-3M melanoma

Structure (SMILES)	TGI (OVCAR-5 ovarian)	TGI (RXF 393 renal)	TGI (U251 CNS)	TGI (SF-268 CNS)	TGI (SW-620 colon)	TGI (SR leukemia)	TGI (NCI-H226 lung)	TGI (NCI-H460 lung)	TGI (NCI-H522 lung)	TGI (A498 renal)	TGI (A549 NSCLC)	TGI (ACHN renal)	TGI (HL-60(TB) leukemia)	TGI (NCI/ADR-RES ovarian)	TGI (MALME-3M melanoma)	GI50 (RXF 393 renal)	GI50 (U251 CNS)	GI50 (SF-268 CNS)	GI50 (A549 NSCLC)	GI50 (NCI/ADR-RES ovarian)
O=C1c2ccccc2OP(=O)(OCC(F)(F)F)OC1(C(F)(F)F)C(F)(F)F (stereo unspecified)	> 100 µM	> 100 µM	> 100 µM	> 100 µM	> 100 µM	> 100 µM	> 100 µM	> 100 µM	> 100 µM	> 100 µM	> 100 µM	> 100 µM	> 100 µM	–	–	–	–	–	–	–
CC(C)(C)c1cc(C2=NNC(c3ccccc3)C2)cc(C(C)(C)C)c1O (stereo unspecified)	40.9 µM	23.2 µM	28.8 µM	36 µM	34.3 µM	27.5 µM	32.8 µM	29.7 µM	28.4 µM	29.7 µM	34.5 µM	29.8 µM	–	38.7 µM	34.7 µM	–	–	–	–	–
Cc1cn(C2CC(O)C(COC(=O)NCCC(F)(F)C(F)(F)C(F)(F)C(F)(F)F)O2)c(=O)[nH]c1=O (stereo unspecified)	> 100 µM	> 100 µM	> 100 µM	> 100 µM	> 100 µM	> 100 µM	> 100 µM	> 100 µM	> 100 µM	> 100 µM	> 100 µM	> 100 µM	> 100 µM	–	> 100 µM	–	–	–	–	–
CCOP(=O)(OCC)C(C)(CC)N/C(=N/C(NC(C)=O)(C(F)(F)F)C(F)(F)F)NC1=NC(C(F)(F)F)(C(F)(F)F)N=C(C(F)(F)F)O1 (stereo unspecified)	> 100 µM	93.8 µM	> 100 µM	> 100 µM	> 100 µM	–	70.1 µM	> 100 µM	77.7 µM	> 100 µM	> 100 µM	> 100 µM	45.8 µM	47.4 µM	58.2 µM	–	–	–	–	–
COc1ccc(N=Cc2ccc(N(CCC#N)S(=O)(=O)c3ccccc3)cc2)cc1	> 100 µM	> 100 µM	> 100 µM	> 100 µM	> 100 µM	> 100 µM	> 100 µM	> 100 µM	> 100 µM	> 100 µM	> 100 µM	> 100 µM	> 100 µM	–	> 100 µM	–	–	–	–	–
C=CCC(N(C)C(=O)[C@H](Cc1ccccc1)NC(=O)OCc1ccccc1)P(=O)(Oc1ccccc1)Oc1ccccc1 (stereo partly specified)	–	> 100 µM	> 100 µM	> 100 µM	> 100 µM	> 100 µM	> 100 µM	> 100 µM	> 100 µM	–	> 100 µM	> 100 µM	> 100 µM	–	> 100 µM	–	–	–	–	–
CCOC(=O)c1cn2c(n1)sc1c(Cl)c(Cl)ccc12	> 100 µM	> 100 µM	> 100 µM	> 54.9 µM	> 100 µM	> 55.2 µM	51.6 µM	> 100 µM	43.4 µM	> 100 µM	> 100 µM	> 100 µM	–	97.9 µM	8.92 µM	–	–	–	–	–
O=C(NCCNCCCNC(=O)c1cc(-c2ccccc2)nc2ccccc12)c1cccc(O)c1O	13.9 µM	47.7 µM	17.6 µM	16.4 µM	> 100 µM	–	36.3 µM	41.6 µM	29.7 µM	55.9 µM	> 100 µM	20 µM	> 100 µM	> 100 µM	20.2 µM	–	–	–	–	–
N#Cc1c(-c2ccc([N+](=O)[O-])cc2)c(C#N)c(=O)n(NS(=O)(=O)c2ccccc2)c1-c1ccccc1	> 100 µM	> 100 µM	> 100 µM	> 100 µM	> 100 µM	–	> 100 µM	> 100 µM	> 100 µM	> 100 µM	> 100 µM	> 100 µM	> 100 µM	> 100 µM	> 100 µM	–	–	–	–	–
COc1cccc([C@H]2C/C(=N\NC(=O)C(=O)N[C@@H](C)c3ccccc3)c3ccccc3N2)c1	> 100 µM	> 100 µM	> 100 µM	> 100 µM	> 100 µM	–	3.03 µM	–	–	> 100 µM	> 100 µM	> 100 µM	–	0.0535 µM	–	0.0303 µM	0.0325 µM	0.0912 µM	0.0366 µM	< 0.01 µM
CCOC(=O)/C=C/n1c2ccccc2c(=O)c2ccccc21	–	> 100 µM	> 100 µM	> 100 µM	> 100 µM	> 100 µM	> 100 µM	> 100 µM	> 100 µM	> 100 µM	> 100 µM	> 100 µM	> 100 µM	–	> 100 µM	–	–	–	–	–
CC(=O)OCC1OC(OC2CC3C(C)(C)C(OC(C)=O)CC[C@]3(C)C3CCC45CC4(CCC5[C@@H](C)C[C@H](O)C(O)C(C)(C)O)[C@]23C)C(O)C(O)C1O (stereo partly specified)	> 10 µM	> 10 µM	> 10 µM	> 10 µM	> 10 µM	–	> 10 µM	> 10 µM	> 10 µM	> 10 µM	> 10 µM	> 10 µM	> 10 µM	> 10 µM	> 10 µM	–	–	–	–	–
CCOC(=O)c1c(N)sc2c1C(C)(C(=O)OCC)CC2 (stereo unspecified)	> 100 µM	> 100 µM	> 100 µM	–	> 100 µM	> 100 µM	> 100 µM	> 100 µM	–	83 µM	> 100 µM	> 100 µM	> 100 µM	–	> 100 µM	–	–	–	–	–
COC(=O)c1sc(=S)sc1SCc1ccc(CSc2sc(=S)sc2C(=O)OC)cc1	> 100 µM	> 100 µM	> 100 µM	> 100 µM	> 100 µM	–	> 100 µM	> 100 µM	> 100 µM	> 100 µM	> 100 µM	> 100 µM	–	> 100 µM	> 100 µM	–	–	–	–	–
CCOc1ccc(/C(Cl)=C(\C=O)c2ccc(OC)c(OC)c2)cc1OCC	> 100 µM	> 100 µM	97.5 µM	> 100 µM	> 100 µM	50.8 µM	> 100 µM	> 100 µM	> 100 µM	–	> 100 µM	> 100 µM	62.7 µM	–	> 100 µM	–	–	–	–	–
CN(C)CCCNc1ccc([N+](=O)[O-])c2nc3ccccc3c(N)c12	> 10 µM	2.29 µM	2.12 µM	4.92 µM	1.63 µM	> 10 µM	> 10 µM	1.38 µM	–	6.92 µM	2.37 µM	1.61 µM	–	1.84 µM	> 10 µM	–	–	–	–	–
